Data reported in patent US11471503B2, “Use of KOR agonist in combination with MOR agonist in preparing drug for treating pain” (JIANGSU HENGRUI MEDICINE CO., LTD., priority 2017, dated 2022).
Where a SMILES comes first, the peptide text is derived from it. [ ]: non-standard residue; d: D form. The star is where a group is joined. Gly(N-(2R-Ph-propyl)) = C[C@@H](CNCC(=O)O)c1ccccc1; Piperidin1yl(4-NH2,4-COOH) = NC1(C(=O)O)CCN(*)CC1

System: incision pain in rats
Test: Incision pain test in rats, mechanical pain threshold by Electronic Von Frey
Format: in vivo, rat (male Wistar)
Conditions: for increase of tenderness threshold compared with the model group: i.v., 30 min after injection; for tenderness threshold: tail vein i.v. 24 h after incision, measured 30 min after injection, model group 8.91 g
Protocol: Example 3. Treatment Effect of the Combination of the KOR Agonist and the MOR Agonist of the Present Invention on Incision Pain in Rats
Compound 5 (prepared according to the method described in Example 1), and compound 20 (prepared according to the method described in Example 2). The compound dose was calculated on bases.
Experimental male Wistar rats were purchased from Shanghai Slac Laboratory Animal Co., Ltd. The rats weighed 140-160 g when purchased, and were fed at 5 rats/cage, under a condition of 12/12 hours light/dark cycle adjustment, a constant temperature of 23±1° C., a humidity of 50-60%, and free access to food and water. After purchase, the animals were subjected to an adaptive feeding for more than 3 days before the experiment was started.
Electronic Von Frey: UGO BASILE, type 38450.
Both compound 5 and compound 20 were formulated with normal saline.
The rats were randomly divided into the following groups according to the body weight: blank control group (n=10), model group (n=10) and drug-administered group (n=50). The drug-administered group was divided into the following groups: compound 20-0.03 mg/kg group (n=10), compound 5-0.3 mg/kg group (n=10), compound 5-0.1 mg/kg+compound 20-0.03 mg/kg group (n=10), compound 5-0.3 mg/kg+compound 20-0.03 mg/kg group (n=10), and compound 5-1 mg/kg+compound 20-0.03 mg/kg group (n=10). The model group and drug-administered group were subjected to an incision surgery. During the surgery, the rats were anesthetized with isoflurane. An incision (1 cm long) passing through the skin and fascia was made with a No. 10 surgical blade in the middle of the left hind paw. The skin was sutured with a 3-0 sterile silk surgical suture. The injured site was disinfected with antibiotic ointment and iodophor. The animals were returned to their original place to recover overnight. After 24 hours, the drug was injected through the tail vein, and the blank control group and the model group were administrated with normal saline two times with an interval of 15 minutes. The group administered with compound 20 alone was intravenously injected with the corresponding dose of compound 20 and the blank solvent for formulating compound 5. The group administered with compound 5 alone was intravenously injected with the corresponding dose of compound 5 and the blank solvent for formulating compound 20. […] The mechanical pain threshold of each group was measured by the Electronic Von Frey 30 minutes after the injection to evaluate the analgesic effect of the drug on the surgical incision pain and the intensity thereof.
The experimental data were expressed as mean±standard deviation (S.D.). […]

CCO[C@H]1CC[C@H](NCC[C@@]2(c3ccccn3)CCOC3(CCCC3)C2)c2ccccc21 [compound 20, (1S,4S)-4-Ethoxy-N-(2-((R)-9-(pyridin-2-yl)-6-oxaspiro[4.5]decan-9-yl)ethyl)-1,2,3,4-tetrahydronaphthalen-1-amine]
increase of tenderness threshold compared with the model group (compound 20 0.03 mg/kg alone): 62.3% | tenderness threshold (compound 20 0.03 mg/kg alone, blank control 14.48 g): 14.46 g

CC(C)C[C@@H](NC(=O)[C@@H](Cc1ccccc1)NC(=O)CNC[C@H](C)c1ccccc1)C(=O)N[C@H](CCCCN)C(=O)N1CCC(N)(C(=O)O)CC1 [compound 5, 4-Amino-1-((2R,5R,8R,14R)-2-(4-aminobutyl)-8-benzyl-5-isobutyl-4,7,10-trioxo-14-phenyl-3,6,9,12-tetraazapentadecan-1-oyl)piperidine-4-carboxylic acid] (H-[Gly(N-(2R-Ph-propyl))][dF][dL][dK]-{Piperidin1yl(4-NH2,4-COOH)})
increase of tenderness threshold compared with the model group (compound 5 0.3 mg/kg alone): 101.1% | tenderness threshold (compound 5 0.3 mg/kg alone): 17.92 g
